Legend:
Format in all cases: biochemical
[1] = biological target: T1, PI3Kβ (Homo sapiens, UniProt P42338); assay: TR-FRET enzymatic activity assay, PI3Kβ; details: Table 2a; same assay
T1 construct: made in house

[2] = biological target: T2, PI3Kδ (Homo sapiens, UniProt O00329); assay: TR-FRET enzymatic activity assay, PI3Kδ; details: Table 2a; same assay
T2 construct: made in house

[3] = biological target: T3, PI3Kγ (Homo sapiens, UniProt P48736); assay: TR-FRET enzymatic activity assay, PI3Kγ; details: Table 2a; same assay; read-out: PI3Kγ IC50
T3 construct: made in house
How it was run: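 Each PI3K isoform is tested in an enzymatic format. Signal comes from time-resolved fluorescence energy transfer.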

T3 sequence (P48736 whole entry): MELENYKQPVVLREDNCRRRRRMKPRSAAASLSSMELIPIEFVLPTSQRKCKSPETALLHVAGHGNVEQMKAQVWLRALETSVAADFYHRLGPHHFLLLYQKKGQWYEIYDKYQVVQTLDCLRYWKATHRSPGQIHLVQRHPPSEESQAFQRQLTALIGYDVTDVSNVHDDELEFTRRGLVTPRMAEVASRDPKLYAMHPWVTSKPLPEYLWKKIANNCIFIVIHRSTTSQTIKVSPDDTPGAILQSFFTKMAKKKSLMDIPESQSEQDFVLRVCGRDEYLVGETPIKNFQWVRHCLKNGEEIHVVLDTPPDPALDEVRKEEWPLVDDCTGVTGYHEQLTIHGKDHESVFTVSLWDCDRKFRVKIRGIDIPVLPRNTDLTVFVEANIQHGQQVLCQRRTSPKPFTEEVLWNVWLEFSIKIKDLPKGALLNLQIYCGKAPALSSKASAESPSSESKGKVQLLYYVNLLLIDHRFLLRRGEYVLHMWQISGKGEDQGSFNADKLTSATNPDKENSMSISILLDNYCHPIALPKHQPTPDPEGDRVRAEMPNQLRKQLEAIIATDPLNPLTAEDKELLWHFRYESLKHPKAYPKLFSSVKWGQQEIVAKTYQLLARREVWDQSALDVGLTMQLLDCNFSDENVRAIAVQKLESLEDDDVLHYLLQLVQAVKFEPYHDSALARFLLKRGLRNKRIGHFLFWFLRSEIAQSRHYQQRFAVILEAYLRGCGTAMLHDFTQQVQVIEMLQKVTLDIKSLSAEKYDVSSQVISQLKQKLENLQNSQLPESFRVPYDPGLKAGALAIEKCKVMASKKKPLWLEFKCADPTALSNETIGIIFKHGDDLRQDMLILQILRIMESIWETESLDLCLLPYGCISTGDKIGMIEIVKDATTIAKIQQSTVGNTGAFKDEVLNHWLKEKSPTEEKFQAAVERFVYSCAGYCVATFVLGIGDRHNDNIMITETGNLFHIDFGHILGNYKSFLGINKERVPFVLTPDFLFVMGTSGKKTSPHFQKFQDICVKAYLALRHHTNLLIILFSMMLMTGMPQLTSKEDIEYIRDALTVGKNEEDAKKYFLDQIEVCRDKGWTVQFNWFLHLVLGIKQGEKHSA
T2 sequence (O00329 whole entry): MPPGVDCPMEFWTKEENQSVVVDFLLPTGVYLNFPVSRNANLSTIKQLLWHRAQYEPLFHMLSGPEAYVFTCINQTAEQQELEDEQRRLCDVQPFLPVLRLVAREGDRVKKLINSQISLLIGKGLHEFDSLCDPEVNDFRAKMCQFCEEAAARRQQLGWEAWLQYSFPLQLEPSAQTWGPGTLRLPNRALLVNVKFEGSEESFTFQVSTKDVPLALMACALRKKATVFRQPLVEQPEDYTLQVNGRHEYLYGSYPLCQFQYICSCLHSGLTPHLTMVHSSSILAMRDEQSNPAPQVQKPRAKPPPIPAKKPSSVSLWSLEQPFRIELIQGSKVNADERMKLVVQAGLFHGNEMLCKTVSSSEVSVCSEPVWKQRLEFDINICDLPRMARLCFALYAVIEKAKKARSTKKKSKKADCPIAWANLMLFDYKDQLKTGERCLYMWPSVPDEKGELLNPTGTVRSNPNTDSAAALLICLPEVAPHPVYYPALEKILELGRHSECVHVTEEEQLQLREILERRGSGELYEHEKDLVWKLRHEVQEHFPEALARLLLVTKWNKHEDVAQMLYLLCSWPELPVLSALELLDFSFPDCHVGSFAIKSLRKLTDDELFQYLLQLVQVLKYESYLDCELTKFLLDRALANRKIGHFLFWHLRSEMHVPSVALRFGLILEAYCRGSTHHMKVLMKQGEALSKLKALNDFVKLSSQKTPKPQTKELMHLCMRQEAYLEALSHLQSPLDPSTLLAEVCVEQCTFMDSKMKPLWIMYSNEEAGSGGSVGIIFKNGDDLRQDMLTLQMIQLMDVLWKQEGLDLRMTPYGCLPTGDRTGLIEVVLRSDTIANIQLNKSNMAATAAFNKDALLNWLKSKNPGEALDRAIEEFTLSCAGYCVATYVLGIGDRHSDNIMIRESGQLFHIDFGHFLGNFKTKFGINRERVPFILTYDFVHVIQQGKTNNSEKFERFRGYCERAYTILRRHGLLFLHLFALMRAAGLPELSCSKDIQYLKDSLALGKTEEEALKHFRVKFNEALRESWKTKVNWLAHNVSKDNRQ
T2 sequence (P27986 whole entry partner): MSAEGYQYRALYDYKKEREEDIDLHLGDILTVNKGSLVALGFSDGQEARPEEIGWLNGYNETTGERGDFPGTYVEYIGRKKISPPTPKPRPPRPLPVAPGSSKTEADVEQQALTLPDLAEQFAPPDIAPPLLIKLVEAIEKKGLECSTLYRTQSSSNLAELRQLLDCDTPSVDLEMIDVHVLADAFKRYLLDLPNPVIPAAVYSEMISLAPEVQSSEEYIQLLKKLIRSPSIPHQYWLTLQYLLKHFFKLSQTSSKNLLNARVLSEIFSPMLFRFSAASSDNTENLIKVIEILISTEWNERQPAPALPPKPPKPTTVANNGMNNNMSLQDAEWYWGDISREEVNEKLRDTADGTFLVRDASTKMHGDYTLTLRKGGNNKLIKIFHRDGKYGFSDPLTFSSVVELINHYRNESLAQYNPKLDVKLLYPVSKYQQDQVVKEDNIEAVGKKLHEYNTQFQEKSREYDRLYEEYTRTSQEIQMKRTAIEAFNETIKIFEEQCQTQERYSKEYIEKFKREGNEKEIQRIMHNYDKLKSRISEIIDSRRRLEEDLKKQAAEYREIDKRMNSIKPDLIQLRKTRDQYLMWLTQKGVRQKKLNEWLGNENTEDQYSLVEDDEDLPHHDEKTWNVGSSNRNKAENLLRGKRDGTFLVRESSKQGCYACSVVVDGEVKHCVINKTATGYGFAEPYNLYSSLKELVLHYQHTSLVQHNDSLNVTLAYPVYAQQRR
T1 sequence (P42338 whole entry): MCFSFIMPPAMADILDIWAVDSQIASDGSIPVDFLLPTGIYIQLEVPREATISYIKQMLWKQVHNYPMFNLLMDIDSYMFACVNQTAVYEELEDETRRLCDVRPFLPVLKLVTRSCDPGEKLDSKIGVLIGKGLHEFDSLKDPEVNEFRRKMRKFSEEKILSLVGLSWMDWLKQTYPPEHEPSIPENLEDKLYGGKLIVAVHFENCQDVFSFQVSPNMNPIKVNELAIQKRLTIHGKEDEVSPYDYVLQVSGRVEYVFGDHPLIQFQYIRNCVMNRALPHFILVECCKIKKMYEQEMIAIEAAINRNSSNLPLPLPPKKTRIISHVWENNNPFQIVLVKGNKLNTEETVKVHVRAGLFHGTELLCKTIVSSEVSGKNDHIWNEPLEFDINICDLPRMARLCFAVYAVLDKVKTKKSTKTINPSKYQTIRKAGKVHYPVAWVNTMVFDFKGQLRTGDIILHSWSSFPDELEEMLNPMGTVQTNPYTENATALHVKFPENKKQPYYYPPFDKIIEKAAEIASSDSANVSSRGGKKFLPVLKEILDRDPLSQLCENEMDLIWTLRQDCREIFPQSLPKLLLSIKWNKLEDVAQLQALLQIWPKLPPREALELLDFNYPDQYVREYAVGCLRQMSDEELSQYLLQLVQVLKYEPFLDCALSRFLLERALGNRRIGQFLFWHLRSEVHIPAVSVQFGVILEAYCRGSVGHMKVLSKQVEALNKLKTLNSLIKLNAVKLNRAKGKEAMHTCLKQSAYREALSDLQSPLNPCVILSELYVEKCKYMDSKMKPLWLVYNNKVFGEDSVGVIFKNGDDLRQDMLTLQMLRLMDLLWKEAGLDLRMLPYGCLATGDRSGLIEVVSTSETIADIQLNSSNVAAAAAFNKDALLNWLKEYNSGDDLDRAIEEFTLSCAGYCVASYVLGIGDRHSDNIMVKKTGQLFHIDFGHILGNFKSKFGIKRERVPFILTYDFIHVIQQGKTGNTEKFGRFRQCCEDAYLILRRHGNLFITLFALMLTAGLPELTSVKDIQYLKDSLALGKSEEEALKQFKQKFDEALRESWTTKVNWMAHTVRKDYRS
T1 sequence (P27986 whole entry partner): as the sequence (P27986 whole entry partner) above

| IC50 [1] [nM] | IC50 [2] [nM] | IC50 [3] [nM] | SMILES |
| --- | --- | --- | --- |
| 4 | 1 | 330 | C[C@H](Nc1nc(N)nc(N)c1C#N)c1nc2c(Cl)cc(F)cc2c(=O)n1-c1c[nH]cn1 [Compound 285, (S)-2,4-diamino-6-((1-(8-chloro-6-fluoro-3-(1H-imidazol-4-yl)-4-oxo-3,4-dihydroquinazolin-2-yl)ethyl)amino)pyrimidine-5-carbonitrile] |
| 0.8 | 0.3 | 230 | C[C@H](Nc1nc(N)nc(N)c1C#N)c1nc2c(Cl)ccc(Cl)c2c(=O)n1-c1c[nH]cn1 [Compound 286, (S)-2,4-diamino-6-((1-(5,8-dichloro-3-(1H-imidazol-4-yl)-4-oxo-3,4-dihydroquinazolin-2-yl)ethyl)amino)pyrimidine-5-carbonitrile] |
| 2 | 0.7 | 190 | C[C@H](Nc1nc(N)nc(N)c1C#N)c1nc2cccc(Cl)c2c(=O)n1-c1c[nH]cn1 [Compound 288, (S)-2,4-diamino-6-((1-(5-chloro-3-(1H-imidazol-4-yl)-4-oxo-3,4-dihydroquinazolin-2-yl)ethyl)amino)pyrimidine-5-carbonitrile] |

Further lines, the molecule ahead of its results:

| SMILES | IC50 [1] [nM] | IC50 [2] [nM] | IC50 [3] [nM] |
| --- | --- | --- | --- |
| Nc1nc(N)c(Cl)c(N[C@H](c2nc3cccc(Cl)c3c(=O)n2-c2c[nH]cn2)C2CC2)n1 [Compound 287, (S)-5-chloro-2-(cyclopropyl((2,6-diamino-5-chloropyrimidin-4-yl)amino)methyl)-3-(1H-imidazol-4-yl)quinazolin-4(3H)-one] | 53 | 8 | 3000 |
| C[C@H](Nc1nc(N)nc(N)c1C#N)c1nc2cccc(Cl)c2c(=O)n1-c1ccc[nH]1 [Compound 289, (S)-2,4-diamino-6-((1-(5-chloro-4-oxo-3-(1H-pyrrol-2-yl)-3,4-dihydroquinazolin-2-yl)ethyl)amino)pyrimidine-5-carbonitrile] | 5 | 0.2 | 12 |
| C[C@H](Nc1ncnc2scnc12)c1nc2cccc(Cl)c2c(=O)n1-c1ccc[nH]1 [Compound 290, (S)-5-chloro-3-(1H-pyrrol-2-yl)-2-(1-(thiazolo[5,4-d]pyrimidin-7-ylamino)ethyl)quinazolin-4(3H)-one] | 69 | 0.5 | 72 |
| C[C@H](Nc1ncnn2ccnc12)c1nc2cccc(Cl)c2c(=O)n1-c1ccc[nH]1 [Compound 291, (S)-5-chloro-2-(1-(imidazo[2,1-f][1,2,4]triazin-4-ylamino)ethyl)-3-(1H-pyrrol-2-yl)quinazolin-4(3H)-one] | 140 | 1 | 170 |
